CC(=O)Nc1ccc(O)cc1
solubility (mole fraction)
Conditions	293.15 K	298.15 K	303.15 K	308.15 K	313.15 K
in ethanol	0.0505	0.0546	0.062	0.067	0.0705
in propylene glycol	0.0483	0.0516	0.0603	0.0664	0.0752
